Assay results as given in patent US11639350B2, “Heteroaryldihydropyrimidine derivatives and methods of treating hepatitis B infections” (Janssen Pharmaceutica NV, priority 2018, dated 2023).

How the values were obtained:
[1] = Cytotoxicity determination in HepG2.2.15 cells (CCK-8); assay type: cell-based; details: human, 6 days of compound treatment, CCK-8, highest concentration 100 μM
Procedure, shortened: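 HepG2.2.15 cells seeded at 5,000 cells/well in 2% FBS medium, incubated overnight at 37° C., then treated 6 days with compounds (8 points, 3-fold dilutions, top 100 μM), medium refreshed once midway. CCK-8 added for 2.5 h; A450 read against 630 nm reference; CC50 calculated, averaged over repeats.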

HBV = HBV inhibitory activity: HBV DNA in the culture medium of HepG2.2.15 cells by q-PCR; assay type: cell-based; details: Hepatitis B virus, HepG2.2.15, 144 h, HepG2.2.15 cells, 6 days of compound treatment, HBV DNA in culture medium by q-PCR, highest concentration 10 μM; read-out: EC50
Procedure, shortened: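 HepG2.2.15 cells in 2% FBS medium, 40,000 per well, treated 6 days with compound (medium refreshed once), eight 3-fold dilutions from 10 μM top. HBV DNA extracted from culture medium and quantified by q-PCR; EC50 averaged over repeats. Cytotoxicity run in parallel at 5,000 cells per well, top 100 μM, giving CC50.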

SMILES	CC50 at 6 days [1]	EC50 (HBV)
COC(=O)C1=C(C2CCN(S(=O)(=O)[C@H]3C[C@H](C(=O)O)C3)CC2)NC(c2nccs2)=NC1c1cccc(F)c1Cl (stereo partly drawn) [Compound 331C, (trans)-3-((4-(6-(2-Chloro-3-fluorophenyl)-5-(methoxycarbonyl)-2-(thiazol-2-yl)-3,6-dihydropyrimidin-4-yl)piperidin-1-yl)sulfonyl)cyclobutane-carboxylic Acid]	> 100000 nM	192 nM
CNC(=O)C1COC(C2=C(C(=O)OC)C(c3cccc(F)c3Cl)N=C(c3nccs3)N2)C1 (stereo not shown) [Compound 263, Methyl 4-(2-chloro-3-fluorophenyl)-6-(4-(methylcarbamoyl)-tetrahydrofuran-2-yl)-2-(thiazol-2-yl)-1,4-dihydropyrimidine-5-carboxylate]	81100 nM	150 nM
COC(=O)C1=C(C2CNC(=O)C2)NC(c2nccs2)=NC1c1cccc(F)c1Cl (stereo not shown) [Compound 284, methyl 4-(2-chloro-3-fluorophenyl)-6-(−5-oxopyrrolidin-3-yl)-2-(thiazol-2-yl)-1,4-dihydropyrimidine-5-carboxylate]	21100 nM	226 nM
COC(=O)C1=C([C@H]2CC[C@H](C(=O)OC)CC2)NC(c2nccs2)=NC1c1ccc(F)c(F)c1Cl (single isomer, unassigned) [Compound 288M, (trans)-Methyl 4-(2-chloro-3,4-difluorophenyl)-6-(4-(methoxycarbonyl)cyclohexyl)-2-(thiazol-2-yl)-1,4-dihydropyrimidine-5-carboxylate]	20000 nM	63 nM
COC(=O)C1=C(C2CCN(S(C)(=O)=O)CC2)NC(c2c(F)cc(F)cc2F)=NC1c1ccc(F)cc1Cl (single isomer, unassigned) [Compound 54A, Methyl 4-(2-chloro-4-fluorophenyl)-6-(1-(methylsulfonyl)piperidin-4-yl)-2-(2,4,6-trifluorophenyl)-1,4-dihydropyrimidine-5-carboxylate]	31200 nM	19 nM
COCCNS(=O)(=O)N1CCC(C2=C(C(=O)OC)C(c3ccc(F)cc3Cl)N=C(c3nccs3)N2)CC1 (single isomer, unassigned) [Compound 268B, Methyl 4-(2-chloro-4-fluorophenyl)-6-(1-(N-(2-methoxyethyl)-sulfamoyl)piperidin-4-yl)-2-(thiazol-2-yl)-1,4-dihydropyrimidine-5-carboxylate]	30700 nM	59 nM
CCOC(=O)C1=C([C@H]2CC[C@H](C(=O)NC)CC2)NC(c2nccs2)=NC1c1ccc(F)cc1Cl (single isomer, unassigned) [Compound 132A, trans-Ethyl 4-(2-chloro-4-fluorophenyl)-6-(4-(methylcarbamoyl)-cyclohexyl)-2-(thiazol-2-yl)-1,4-dihydropyrimidine-5-carboxylate]	23900 nM	472 nM
COC(=O)C1=C([C@H]2CC[C@@H](NS(C)(=O)=O)CC2)NC(c2nccs2)=NC1c1ccc(F)cc1Cl (single isomer, unassigned) [Compound 128D, Methyl 4-(2-chloro-4-fluorophenyl)-6-(cis-4-(methylsulfonamido)-cyclohexyl)-2-(thiazol-2-yl)-1,4-dihydropyrimidine-5-carboxylate]	22800 nM	17 nM
COC(=O)C1=C(C23CC(NS(=O)(=O)CC(O)CO)(C2)C3)NC(c2nccs2)=NC1c1ccc(F)cc1Cl (stereo not shown) [Compound 393B, Methyl 4-(2-chloro-4-fluorophenyl)-6-(3-(2,3-dihydroxypropylsulfonamido)bicyclo[1.1.1]pentan-1-yl)-2-(thiazol-2-yl)-1,4-dihydropyrimidine-5-carboxylate]	85000 nM	100 nM
COCCOCCOCCS(=O)(=O)NC12CC(C3=C(C(=O)OC)C(c4ccc(F)cc4Cl)N=C(c4nccs4)N3)(C1)C2 (stereo not shown) [Compound 440b, Methyl 4-(2-chloro-4-fluorophenyl)-6-(3-(2-(2-(2-methoxyethoxy)ethoxy)ethylsulfonamido)bicyclo[1.1.1]pentan-1-yl)-2-(thiazol-2-yl)-1,4-dihydropyrimidine-5-carboxylate]	82900 nM	13 nM
COC(=O)C1=C(C2CCN(S(=O)(=O)[C@H]3CC[C@H](CC(=O)O)CC3)CC2)NC(c2nccs2)=NC1c1ccc(F)cc1Cl (relative stereo) [Compound 476A, (trans)-2-(4-((4-(6-(2-Chloro-4-fluorophenyl)-5-(methoxycarbonyl)-2-(thiazol-2-yl)-3,6-dihydropyrimidin-4-yl)piperidin-1-yl)sulfonyl)cyclohexyl)acetic Acid]	30400 nM	14 nM
CCOC(=O)C1=C(C2CCN(S(=O)(=O)[C@H]3C[C@H](C(=O)O)C3)CC2)NC(c2nccs2)=NC1c1ccc(F)c(F)c1Br (stereo partly drawn) [Compound 199A, (trans)-3-((4-(6-(2-bromo-3,4-difluorophenyl)-5-(ethoxycarbonyl)-2-(thiazol-2-yl)-3,6-dihydropyrimidin-4-yl)piperidin-1-yl)sulfonyl)cyclobutanecarboxylic Acid]	35800 nM	56 nM
COC(=O)C1=C([C@H]2CC[C@H](N(C)S(C)(=O)=O)CC2)NC(c2nccs2)=NC1c1ccc(F)cc1Cl (single isomer, unassigned) [Compound 388B, (trans)-Methyl 4-(2-chloro-4-fluorophenyl)-6-(4-(N-methylmethylsulfonamido)cyclohexyl)-2-(thiazol-2-yl)-1,4-dihydropyrimidine-5-carboxylate]	27800 nM	28 nM
CCNS(=O)(=O)N1CC(C2=C(C(=O)OC)C(c3ccc(F)cc3Cl)N=C(c3nccs3)N2)C1 (stereo not shown) [Compound 81, 4-(2-Chloro-4-fluoro-phenyl)-6-(1-ethylsulfamoyl-azetidin-3-yl)-2-thiazol-2-yl-1,4-dihydro-pyrimidine-5-carboxylic Acid Methyl Ester]	10500 nM	119 nM
COC(=O)C1=C(C2CCN(S(=O)(=O)N3CCOCC3)CC2)NC(c2nccs2)=NC1c1ccc(F)cc1Cl (stereo not shown) [Compound 164, Methyl 4-(2-chloro-4-fluorophenyl)-6-(1-(morpholinosulfonyl)piperidin-4-yl)-2-(thiazol-2-yl)-1,4-dihydropyrimidine-5-carboxylate]	57400 nM	58 nM
COC(=O)C1=C(C23CC(NS(C)(=O)=O)(C2)C3)NC(c2nccs2)=NC1c1ccc(F)cc1Cl (single isomer, unassigned) [Compound 372Y, Methyl 4-(2-chloro-4-fluorophenyl)-6-(3-(methylsulfonamido)bicyclo[1.1.1]pentan-1-yl)-2-(thiazol-2-yl)-1,4-dihydropyrimidine-5-carboxylate]	31800 nM	15 nM
CCOC(=O)C1=C(C2CCN(S(=O)(=O)[C@H]3CC[C@@H](C(=O)O)CC3)CC2)NC(c2nccs2)=NC1c1ccc(F)c(F)c1Cl (relative stereo) [Compound 354B, (cis)-4-((4-(6-(2-Chloro-3,4-difluorophenyl)-5-(ethoxycarbonyl)-2-(thiazol-2-yl)-3,6-dihydropyrimidin-4-yl)piperidin-1-yl)sulfonyl)cyclohexane-carboxylic Acid]	7000 nM	18 nM
